Assay results: PubChem BioAssay AID504565 (NMMLSC, 2011)

Tested on: Mouse 2C CD8+ T cell-vesicle binding, flow cytometry
Experiment: modulators of CD8 T cell-vesicle binding, dose response, powder samples, mouse 2C CD8+ cells (AID 504565)
[1] = CD8+ 90th percentile fluorescence
[2] = double positive events percentage

SMILES	EC50 [1]	EC50 [2]
CCOC(=O)C1CCCN(S(=O)(=O)c2ccc(F)c(C(=O)Nc3ccc(F)c(F)c3)c2)C1 (stereo unspecified)	37.7 µM	34.4 µM
O=C(c1ccc(N2C(=O)C3CC=C(Cl)CC3C2=O)cc1)N1CCCCC1 (stereo unspecified)	34.9 µM	39.8 µM
O=C(NCC1CCCCC1)c1ccc(Cl)c(S(=O)(=O)N2CCOCC2)c1	21.4 µM	17.1 µM
Cc1ccccc1C(=O)N1CCC(C(=O)Nc2ccc(C)c(S(=O)(=O)N3CCCCC3)c2)CC1	17 µM	16.3 µM
Cc1cc(Cl)c(OCCCSc2nc(C)cc(=O)[nH]2)c(Br)c1	22.6 µM	
O=C(O)C1CCC(Cn2c(SCc3cc(=O)n4cc(Cl)ccc4n3)nc3ccsc3c2=O)CC1 (stereo unspecified)	34.8 µM	33.7 µM
COc1ccc(S(=O)(=O)N2CCCC2C(=O)Nc2ccc(C(C)=O)cc2)cc1 (stereo unspecified)	20.7 µM	20.2 µM
CCN(CC)S(=O)(=O)c1ccc(Cl)c(NC(=O)COC(=O)C2CCCCC2)c1	38.8 µM	37.6 µM

These reach a lower EC50 [1]. Values come first.

EC50 [1]	EC50 [2]	SMILES
8 µM	9.84 µM	CN(CC(=O)Nc1cc(S(=O)(=O)N2CCCC2)ccc1Cl)Cc1ccc2c(c1)OCO2
0.239 µM		CCOc1ccc(-c2nc(N)ncc2-c2ccccc2)c(O)c1
0.6 µM	0.63 µM	CCOCC(=O)Nc1ccc(S(=O)(=O)N2CCC(c3nc4ccccc4[nH]3)CC2)cc1
14 µM	10.4 µM	CCOC(=O)c1ccc(S(=O)(=O)N2CCN(C3CCCC3)CC2)cc1
6.43 µM	7.96 µM	COCc1c(C(=O)Nc2cccc(S(=O)(=O)N3CCCCC3)c2)oc2ccccc12
8.26 µM	3.22 µM	O=C(COC(=O)C12CC3CC(CC(Br)(C3)C1)C2)Nc1cccc(S(=O)(=O)N2CCOCC2)c1
